In PubChem BioAssay AID1996:
Values after ≈ are worked out from the molar mass of the structure shown. Non-standard residues stand in square brackets, D forms with d. Residues, ends and D or L forms follow the SMILES beside them. *: point of attachment. Tic = O=C(O)[C@@H]1Cc2ccccc2CN1; NHPr = CCCN*

details: buffer; pH 7.4; 200.0 µM

| Structure (SMILES) | solubility kinetic [µg/mL] |
| --- | --- |
| CC1(C)CC2=C(CO1)C(=S)NC(c1ccccc1)N2CC1CCCO1 (stereo not given) | 45.3 (≈ 126 µM) |
| Cc1cc(C(=O)COC(=O)c2cccc(NS(C)(=O)=O)c2)c(C)n1CC1CCCO1 (stereo not given) | 43.5 (≈ 100 µM) |
| CC(=O)C1=C(C)NC(=O)NC1c1ccc2c(c1)OCO2 (stereo not given) | > 41.1 |
| COc1ccc(NC(=O)C(c2ccc(Cl)cc2)C(C)C)cn1 (stereo not given) | 13.5 (≈ 42.3 µM) |
| COc1ccc(Nc2cc(C)c3cc([N+](=O)[O-])ccc3n2)cc1 | < 0.2 |
| C=CCNC(=O)c1cccc(NS(=O)(=O)c2ccc(Cl)cc2)c1 | 49.9 (≈ 142 µM) |
| COC(=O)c1cc(=O)n2c(sc3ccccc32)c1C#N | 1.3 (≈ 4.57 µM) |
| CC(CN1CCOCC1)OC(=O)Cc1ccccc1.Cl (stereo not given) | 33.3 |
| O=C(Nc1ccc2c(c1)CCC2)Nc1ccccc1Cl | < 0.3 |
| COCCSc1ccccc1C(=O)Nc1ccc(Br)cc1 | 43.1 (≈ 118 µM) |
| O=C(CN1CCCCCC1)Nc1ccc(Br)cc1[N+](=O)[O-] | 0.4 (≈ 1.12 µM) |
| CC1(C)NC(=O)N(CC(=O)OCC(=O)c2ccc(Cl)s2)C1=O | > 51.7 |
| C=CCOc1ccc(C(=O)Nc2ccc3c(c2)n(C)c(=O)n3C)cc1 | 11.4 (≈ 33.8 µM) |
| COC(=O)c1cc(C)sc1NC(=O)c1ccco1 | < 0.6 |
| CN(C)CCNC(=O)Nc1ccc([N+](=O)[O-])cc1 | > 37.8 |
| CCOC(=O)c1cc(C)n(-c2ccc(Cl)cc2)c1C | 1.2 (≈ 4.32 µM) |
| CCCCNC(=S)Nc1ccc(C(F)(F)F)cc1 | 15.7 (≈ 56.8 µM) |
| O=C(COC(=O)c1ccc(O)cc1O)NC1CC1 | > 37.7 |
| COc1ccc(S(=O)(=O)N2CN3CCN(C3)C2)cc1OC | > 47 |
| CC(=O)Nc1ccc(C(=O)COC(=O)c2cc(C)oc2C)c(F)c1 | 7.8 (≈ 23.4 µM) |
| Cn1cccc1C(=O)OCC(=O)NCCCc1ccccc1 | > 45.1 |
| COc1ccc(CCNC(=O)C2(c3ccccc3)CC2)cc1 | 43.8 (≈ 148 µM) |
| O=C(NCCN1CCCCC1)Nc1cccc(F)c1 | > 39.8 |
| COCc1nnc(NC(=O)c2cc3ccccc3o2)s1 | > 43.4 |

| Structure (SMILES) | solubility kinetic [µg/mL] |
| --- | --- |
| COc1ccc(C(=O)CCC(=O)NCCc2ccccc2F)cc1 | 16.9 (≈ 51.3 µM) |
| CCN(CC)c1ccc2c(O)cc(=O)oc2c1 | > 35 |
| COc1cc(CN2CCc3ccccc3C2)cc([N+](=O)[O-])c1O | 42.1 (≈ 134 µM) |
| COc1cccc(NC(=O)c2ccc3c(c2)CCCC3)c1 | 6 (≈ 21.3 µM) |
| O=C(Nc1cccc(F)c1)c1c(O)c2ccccc2[nH]c1=O | < 0.3 |
| CCOc1ccc(NC(=O)COC(=O)Cn2cnc3ccccc32)cc1 | 19.9 (≈ 56.3 µM) |
| S=C(NCc1ccco1)N/N=C/c1ccncc1 | > 39 |
| Cc1c(NC(=O)C(C)OC(=O)c2ccccc2O)c(=O)n(-c2ccccc2)n1C (stereo not given) | > 59.3 |
| Cc1cccc(C)c1NC(=S)NCCSc1ccc(Cl)cc1 | 3.3 (≈ 9.4 µM) |
| Cc1ccc(S(=O)(=O)N2CCOCC2)cc1NC(=O)COC(=O)c1ccc(Cl)nc1 | > 68.1 |
| COc1ccccc1C(=O)Nc1cccc(C(=O)c2ccccc2)c1 | 3.5 (≈ 10.6 µM) |
| CC(C)C(=O)Nc1cc2c3c(c1)CCC(=O)N3CCC2 | > 40.9 |
| COc1ccc(CNc2cc(C)ccn2)cc1 | 17.4 (≈ 76.2 µM) |
| Br.O=C(Cn1c(NCCO)nc2ccccc21)c1ccc(F)cc1 | 22.4 |
| CN1CCN(CC#Cc2ccccc2)CC1CCO (stereo not given) | > 38.8 |
| COc1cc(CC(=O)OCC(=O)N2CCCCC2)cc(OC)c1OC | 46.5 (≈ 132 µM) |
| C/C(N)=C(/C#N)C(=O)COC(=O)C1CCN(S(=O)(=O)c2cccs2)CC1 | 10.9 (≈ 27.4 µM) |
| Cc1[nH]c2ccccc2c1/C=N/NC(=O)CNC(=O)c1ccco1 | > 48.7 |
| Cc1onc(-c2ccc(Cl)cc2Cl)c1C(=O)/C=C/N(C)C | > 48.8 |
| Cc1ccnc(NC(=O)c2cccc(S(=O)(=O)N3CCCC3)c2)c1 | 43.1 (≈ 125 µM) |
| COC(=O)c1ccc(NC(=O)C[n+]2ccccc2C)cc1.[Cl-] | > 48.1 |
| CCCCc1c(O)c2cccc3c2n(c1=O)CCC3 | 35.2 (≈ 137 µM) |
| C=CCC(CC=C)(C(N)=O)c1ccccc1 | 31.6 (≈ 147 µM) |
| O=C(COC(=O)C1=COCCO1)Nc1ccc(Cl)cn1 | > 44.8 |

| Structure (SMILES) | solubility kinetic [µg/mL] |
| --- | --- |
| CCOC(=O)C[N+]1(C)CCN(C(C)=O)CC1.[Br-] | > 46.4 |
| CCCC(=O)Nc1c(-c2cccc(OC)c2)c(=O)c2ccccc2n1C | > 52.6 |
| CC1CC(C)(C)NC(=S)N1CCC(=O)N1CCc2ccccc21 (stereo not given) | 14.6 (≈ 44 µM) |
| O=C1CN(c2nc3nonc3nc2N2CCCCC2)CCN1 | 45.2 (≈ 149 µM) |
| O=C(COc1ccc(F)cc1Br)NCC1(N2CCCCC2)CCCCC1 | 55 (≈ 129 µM) |
| O=C(COC(=O)c1ccccn1)Nc1cccc2ccccc12 | > 45.9 |
| N#Cc1c(N2CCCC2)nsc1-c1ccccc1 | 0.4 (≈ 1.57 µM) |
| Cc1cccc(C)c1OCCNC(=O)OCc1ccccc1 | 15.8 (≈ 52.8 µM) |
| CCc1cn([C@H]2C[C@H](O)[C@@H](CO)O2)c(=O)[nH]c1=O | > 38.4 |
| Cc1oncc1C(=O)Nc1cccc(C#N)c1 | > 34.1 |
| Cc1cccc(C(=O)OCC(=O)Nc2ccc(F)cc2)c1 | 6.3 (≈ 21.9 µM) |
| CN1CCC(N(C)S(=O)(=O)c2ccc(F)cc2F)CC1 | > 45.7 |
| COc1ccc(C)cc1NC(=O)C(C)N1CCOCC1.Cl (stereo not given) | > 47.2 |
| Cn1ncc(C(=O)Nc2ccc(Cl)cc2)c1C(F)(F)F | > 45.6 |
| O=C(NCCCSc1ccccc1)c1cc(Cl)ccc1O | 0.9 (≈ 2.8 µM) |
| O=C1CSc2ccc(C(=O)O)cc2N1 | > 31.4 |
| Cn1c(=O)n(C)c2cc(NC(=O)c3ccc(F)cc3)ccc21 | 15.5 (≈ 51.8 µM) |
| CN(Cc1ccccc1F)C(=O)c1ccccc1Sc1ccccc1C#N | 17 (≈ 45.2 µM) |
| COc1ccccc1NC(=O)C[n+]1ccccc1C.[Cl-] | 41 |
| Cc1cc(OCC(=O)OCC(=O)Nc2cc(S(=O)(=O)N3CCOCC3)ccc2Cl)ccc1Cl | 16.2 (≈ 31.3 µM) |
| COc1cc(OC)c(C2C(C#N)=C(C)NC(C)=C2C#N)c(C(=O)O)c1 | > 50.9 |
| COc1ccc(Nc2nc(OC)nc(OC)n2)cc1 | > 39.3 |
| CCN(CC)C(=O)CSC(Nc1cccc(F)c1)=C(C#N)C#N | > 49.9 |
| Cc1ccc(S(=O)(=O)NCCc2ccncc2)cc1[N+](=O)[O-] | 46.2 (≈ 144 µM) |

| Structure (SMILES) | solubility kinetic [µg/mL] |
| --- | --- |
| CC(OC(=O)c1ccc(NC(N)=O)cc1)C(=O)Nc1ccc2c(c1)OCCO2 (stereo not given) | > 57.8 |
| CC(C)(Cc1ccc(O)cc1)NC(=O)SCc1ccccc1 | > 47.3 |
| Cc1ccc(C2(c3ccc(C)cc3)CC2C(=O)NC(C)C)cc1 (stereo not given) | 1 (≈ 3.25 µM) |
| COc1ccc(Cl)cc1NC(=O)NCCN1CCCCC1 | > 46.8 |
| CCCn1c(=O)c2[nH]cnc2n(-c2ccccc2C)c1=O | > 42.6 |
| CCCCNC(=O)O/N=C(\N)CS(=O)(=O)C(C)(C)C | 36.5 (≈ 124 µM) |
| COC(=O)c1ccccc1NC(=O)CSc1nc2ncccc2[nH]1 | 8.7 (≈ 25.4 µM) |
| O=C1/C(=C/c2cccnc2)CC/C1=C\c1cccnc1 | 17.1 (≈ 65.2 µM) |
| Cc1ccc(NC(=O)Nc2ccc3c(c2)CCC3)cc1 | < 0.3 |
| C=Cc1ccc(Cn2c(=O)n(C)c(=O)c3sccc32)cc1 | 1 (≈ 3.35 µM) |
| CCc1c(O)nc(SCC(=O)c2ccccc2)n(-c2ccccc2)c1=O | 44.6 (≈ 122 µM) |
| CCN(CC)S(=O)(=O)c1ccc(N2CCOCC2)c(NC(=O)c2sccc2C)c1 | 11.4 (≈ 26.1 µM) |
| CN(CC(=O)Nc1ccc(F)cc1)C(=O)c1ccncc1 | > 43.1 |
| CCC(OC(=O)c1ccco1)C(=O)NCc1ccc2c(c1)OCO2 (stereo not given) | 46.5 (≈ 140 µM) |
| Cc1cc(NS(=O)(=O)c2ccc(NC(=O)C3CCCCC3)cc2)no1 | 44.1 (≈ 121 µM) |
| O=C(O)Cc1ccc(S(=O)(=O)N2CCCC2)s1 | > 41.3 |
| CCSc1ncc(Cl)c(C(=O)Nc2cc(C)ccc2C)n1 | < 0.2 |
| N#CCSc1nc2ccccc2c(=O)n1CC1CCCC1 | 0.8 (≈ 2.67 µM) |
| O=C(c1cccc(Cl)c1)N1CCN(Cc2ccccc2)CC1 | 47.1 (≈ 150 µM) |
| CCCNC(=O)[C@@H]1CCCN1C(=O)[C@@H]1Cc2ccccc2CN1.Cl (H-[Tic]-Pro-NHPr) | > 52.8 |
| Cc1nnc(SCC(=O)Nc2ccc([N+](=O)[O-])cc2)n1C | > 46.1 |
| CN1CCCN(Cc2cccc3ccccc23)CC1 | 24.7 (≈ 97.1 µM) |
| Cc1ccc(NC(=O)C(=O)NCCCN2CC(C(=O)O)CC2=O)cc1 (stereo not given) | > 52.1 |
| COc1cc(/C=N/NC(=O)CNC(=O)c2ccncc2)ccc1O | > 49.2 |

| Structure (SMILES) | solubility kinetic [µg/mL] |
| --- | --- |
| Cc1onc(-c2ccccc2Cl)c1C(=O)NCc1ccc(F)cc1 | 45.3 (≈ 131 µM) |
| O=C(c1cc(Cl)ccc1OCc1ccccc1)N1CCOCC1 | > 49.8 |
| CCCCS(=O)(=O)N1CCC(C(=O)NCC2CCCO2)CC1 (stereo not given) | 46 (≈ 138 µM) |
| CCOC(=O)c1cn2c(C)cccc2n1 | > 30.6 |
| Cc1cc(NC(=O)Cc2cc(F)cc(F)c2)no1 | 7.5 (≈ 29.7 µM) |
| CC(C)=CCN1CCN(Cc2cccc3nccnc23)CC1CCO (stereo not given) | > 51.1 |
| CCCCc1c(C)nc2c(OC)cccc2c1SCC(=O)O | > 47.9 |
| O=C(COC(=O)C1=COCCO1)Nc1cc(C(F)(F)F)ccc1Cl | 12.4 (≈ 33.9 µM) |
| Cn1cccc1C(=O)OCC(=O)NCc1ccc2c(c1)OCO2 | > 47.4 |
| O=C(CCN1CCN(c2ccccc2F)CC1)Nc1ccc(F)cc1 | 10.4 (≈ 30.1 µM) |
| CSc1sc(C(=O)NCC2CC2)cc1S(=O)(=O)C(C)C | 49.3 (≈ 148 µM) |
| Cl.NC(c1ccccc1)c1ccncc1 (stereo not given) | > 38.6 |
| O=[N+]([O-])c1cc(F)c(N2CCCC2)cc1Br | 1.6 (≈ 5.53 µM) |
| Cc1ccc(NS(=O)(=O)c2ccc(C(C)C)cc2)cc1S(=O)(=O)N1CCOCC1 | 27.4 (≈ 62.5 µM) |
| O=C1Nc2cc3c(cc2C1=O)sc1ccccc13 | 3.1 (≈ 12.2 µM) |
| COc1cc(NC(=S)N2CCOCC2)c(OC)cc1Cl | > 47.5 |
| COC(=O)c1ccsc1NS(=O)(=O)c1ccccc1 | 44.1 (≈ 148 µM) |
| COc1ccc(C)cc1NC1=NC(C)(C)CS1 | 36.1 (≈ 144 µM) |
| CC(=O)Nc1cccc(C(=O)Nc2cccc3ncccc23)c1 | 40.3 (≈ 132 µM) |
| O=C(O)CCC(=O)N1CCN(c2ncccc2C(F)(F)F)CC1 | 44.5 (≈ 134 µM) |
| OC1(Cc2ccccc2)CCNCC1 | > 28.7 |
| Cc1ccc(CC2SC(N)=NC2=O)cc1 (stereo not given) | > 33 |
| CC(C)[C@H](NC(=O)c1ccccc1F)C(=O)NCCc1ccccc1 | 26.4 (≈ 77.1 µM) |
| CCCN(CCC)Cc1cc(=O)oc2cc3c(cc12)CCC3 | < 0.6 |
